Values joined by “and” are separate entries in the source; they are usually repeats but may differ in a detail not shown here. Equal values may be shown once.
Tested on: 292921-168-R tumor spheroid viability
Test: Anticancer human tumor 292921-168-R patient-derived pancreatic carcinoma cell line growth inhibition
Conditions: spheroids with HUVEC and MSC; for viability, T/C: stronger effect = lower value; active = viability on the fitted dose curve at most 10% of control; inactive = the rest
How it was run: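 Single agents and combinations were tested on spheroids built from tumor cells plus HUVEC and hMSC, at half-log dilutions starting at or near clinical Cmax, else 10 microM; final DMSO 0.25% (v/v).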
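Note: spheroids exposed to compounds for 7 days.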

COc1ccc([C@@H](O)c2cc(-c3ncnc4cc(N5CCOCC5)ccc34)c(F)cc2Cl)nn1 + Cn1nnc2c(C(N)=O)ncn2c1=O
1140 nM: IC50 (curve of first compound, second compound 31.6 µM)
1470 nM: IC50 (curve of first compound, second compound 3.16 µM)
1230 nM: IC50 (curve of first compound, second compound 1 µM)
899 nM: IC50 (curve of first compound, second compound 100 µM)
inactive: viability, T/C (second compound 1 µM, first compound 0.0316 µM) 96.4% | viability, T/C (second compound 1 µM, first compound 0.1 µM) 91.1% | viability, T/C (second compound 1 µM, first compound 0.316 µM) 70.9% | viability, T/C (second compound 1 µM, first compound 1 µM) 55.5% | viability, T/C (second compound 1 µM, first compound 3.16 µM) 32.5% | viability, T/C (second compound 1 µM, first compound 10 µM) 17.9% | viability, T/C (second compound 3.16 µM, first compound 0.0316 µM) 101% | viability, T/C (second compound 3.16 µM, first compound 0.1 µM) 95.5% | viability, T/C (second compound 3.16 µM, first compound 0.316 µM) 82.2% | viability, T/C (second compound 3.16 µM, first compound 1 µM) 60.1% | viability, T/C (second compound 3.16 µM, first compound 3.16 µM) 31.6% | viability, T/C (second compound 3.16 µM, first compound 10 µM) 19% | viability, T/C (second compound 10 µM, first compound 0.0316 µM) 97.5% | viability, T/C (second compound 10 µM, first compound 0.1 µM) 91.6% | viability, T/C (second compound 10 µM, first compound 0.316 µM) 84.9% | viability, T/C (second compound 10 µM, first compound 1 µM) 51% | viability, T/C (second compound 10 µM, first compound 3.16 µM) 35.5% | viability, T/C (second compound 10 µM, first compound 10 µM) 18.2% | viability, T/C (second compound 31.6 µM, first compound 0.0316 µM) 95.5% | viability, T/C (second compound 31.6 µM, first compound 0.1 µM) 92.5% | viability, T/C (second compound 31.6 µM, first compound 0.316 µM) 81.5% | viability, T/C (second compound 31.6 µM, first compound 1 µM) 51.2% | viability, T/C (second compound 31.6 µM, first compound 3.16 µM) 30.4% | viability, T/C (second compound 31.6 µM, first compound 10 µM) 18.6% | viability, T/C (second compound 100 µM, first compound 0.0316 µM) 93% | viability, T/C (second compound 100 µM, first compound 0.1 µM) 88.5% | viability, T/C (second compound 100 µM, first compound 0.316 µM) 77.7% | viability, T/C (second compound 100 µM, first compound 1 µM) 45% | viability, T/C (second compound 100 µM, first compound 3.16 µM) 30.4% | viability, T/C (second compound 100 µM, first compound 10 µM) 18.9%
1290 nM: IC50 (curve of first compound, second compound 10 µM)

COc1ccc([C@@H](O)c2cc(-c3ncnc4cc(N5CCOCC5)ccc34)c(F)cc2Cl)nn1
inactive: viability, T/C (compound 0.0316 µM) 103% and 105% and 96.1% | viability, T/C (compound 0.1 µM) 99.4% and 97.3% and 101% | viability, T/C (compound 0.316 µM) 91.3% and 87.4% and 87.8% | viability, T/C (compound 1 µM) 57.4% and 56.3% and 64.4% | viability, T/C (compound 3.16 µM) 37% and 34.3% and 35.8% | viability, T/C (compound 10 µM) 20.6% and 19% and 21%
1570 nM and 1450 nM and 1780 nM: IC50 (curve of compound)

[2H]c1nc(C)nc([2H])c1-c1cc(NC[C@@H](C)c2cccc3c(C(=O)NC)ccnc23)ncn1 + COc1cc2c(cc1O)CCNC21CSC2c3c(OC(C)=O)c(C)c4c(c3C(COC1=O)N1C(O)C3Cc5cc(C)c(OC)c(O)c5C(C21)N3C)OCO4
< 31.6 nM: IC50 (curve of first compound, second compound 0.0003 µM) | IC50 (curve of first compound, second compound 0.000949 µM) | IC50 (curve of first compound, second compound 0.003 µM)
inactive: viability, T/C (second compound 30 pM, first compound 0.0316 µM) 108% | viability, T/C (second compound 30 pM, first compound 0.1 µM) 99.4% | viability, T/C (second compound 30 pM, first compound 0.316 µM) 99.7% | viability, T/C (second compound 30 pM, first compound 1 µM) 117% | viability, T/C (second compound 30 pM, first compound 3.16 µM) 105% | viability, T/C (second compound 30 pM, first compound 10 µM) 103% | viability, T/C (second compound 94.9 pM, first compound 0.0316 µM) 99.2% | viability, T/C (second compound 94.9 pM, first compound 0.1 µM) 102% | viability, T/C (second compound 94.9 pM, first compound 0.316 µM) 104% | viability, T/C (second compound 94.9 pM, first compound 1 µM) 106% | viability, T/C (second compound 94.9 pM, first compound 3.16 µM) 101% | viability, T/C (second compound 94.9 pM, first compound 10 µM) 99.8% | viability, T/C (second compound 0.0003 µM, first compound 0.0316 µM) 37.5% | viability, T/C (second compound 0.0003 µM, first compound 0.1 µM) 58.4% | viability, T/C (second compound 0.0003 µM, first compound 0.316 µM) 52.1% | viability, T/C (second compound 0.0003 µM, first compound 1 µM) 48.2% | viability, T/C (second compound 0.0003 µM, first compound 3.16 µM) 46% | viability, T/C (second compound 0.0003 µM, first compound 10 µM) 41%
> 10000 nM: IC50 (curve of first compound, second compound 30 pM) | IC50 (curve of first compound, second compound 94.9 pM)
active: viability, T/C (second compound 0.000949 µM, first compound 0.0316 µM) 4.08% | viability, T/C (second compound 0.000949 µM, first compound 0.1 µM) 3.23% | viability, T/C (second compound 0.000949 µM, first compound 0.316 µM) 4.22% | viability, T/C (second compound 0.000949 µM, first compound 1 µM) 2.93% | viability, T/C (second compound 0.000949 µM, first compound 3.16 µM) 3.26% | viability, T/C (second compound 0.000949 µM, first compound 10 µM) 2.21% | viability, T/C (second compound 0.003 µM, first compound 0.0316 µM) 0.18% | viability, T/C (second compound 0.003 µM, first compound 0.1 µM) 0.19% | viability, T/C (second compound 0.003 µM, first compound 0.316 µM) 0.19% | viability, T/C (second compound 0.003 µM, first compound 1 µM) 0.18% | viability, T/C (second compound 0.003 µM, first compound 3.16 µM) 0.19% | viability, T/C (second compound 0.003 µM, first compound 10 µM) 0.34%

Reference: PubChem BioAssay AID1845196 (Molecular Pharmacology Branch, DTP, NCI, 2023)
